Laboratory results taken from ChEMBL document CHEMBL1148353, “Development of potent bifunctional endomorphin-2 analogues with mixed mu-/delta-opioid agonist and delta-opioid antagonist properties” (J Med Chem, 2004).
Where a SMILES comes first, the peptide text is derived from it. [ ]: non-standard residue; d: D form. The star is where a group is joined. Dmt = Cc1cc(O)cc(C)c1C[C@H](N)C(=O)O; NHPhenethyl = c1ccc(CCN*)cc1; NHBn = c1ccc(CN*)cc1; NHPh = c1ccc(N*)cc1; NHtBu = CC(C)(C)N*

target: Delta-type opioid receptor (Rattus norvegicus, UniProt P33533); assay: Binding affinity against rat brain opioid receptor delta 1 using [3H]DPDPE radioligand
Sequence (P33533 whole entry): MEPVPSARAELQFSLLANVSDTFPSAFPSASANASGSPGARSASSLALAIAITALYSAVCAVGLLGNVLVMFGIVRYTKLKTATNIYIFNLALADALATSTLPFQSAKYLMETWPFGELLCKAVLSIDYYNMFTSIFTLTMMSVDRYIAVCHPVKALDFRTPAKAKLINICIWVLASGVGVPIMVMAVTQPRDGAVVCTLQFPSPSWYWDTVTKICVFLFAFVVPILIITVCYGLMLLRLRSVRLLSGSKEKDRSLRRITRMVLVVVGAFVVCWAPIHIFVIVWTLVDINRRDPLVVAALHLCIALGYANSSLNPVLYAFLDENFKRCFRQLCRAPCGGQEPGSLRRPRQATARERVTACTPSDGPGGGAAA

Structure (SMILES)	Ki [µM]
N[C@@H](Cc1ccc(O)cc1)C(=O)N1CCC[C@H]1C(=O)N[C@@H](Cc1ccccc1)C(=O)Nc1cccc2ccccc12	3.64
Cc1cc(O)cc(C)c1C[C@H](N)C(=O)N1CCC[C@H]1C(=O)N[C@@H](Cc1ccccc1)C(=O)Nc1cccc2ncccc12	0.03
Cc1cc(O)cc(C)c1C[C@H](N)C(=O)N1CCC[C@H]1C(=O)N[C@@H](Cc1ccccc1)C(=O)Nc1cnc2ccccc2c1	0.19
Cc1cc(O)cc(C)c1C[C@H](N)C(=O)N1CCC[C@H]1C(=O)N[C@@H](Cc1ccccc1)C(=O)Nc1cccc2ccccc12	0.0199
N[C@@H](Cc1ccc(O)cc1)C(=O)N1CCC[C@H]1C(=O)N[C@@H](Cc1ccccc1)C(=O)Nc1ccc2ncccc2c1	9.88
N[C@@H](Cc1ccc(O)cc1)C(=O)N1CCC[C@H]1C(=O)N[C@@H](Cc1ccccc1)C(=O)Nc1ccccc1 (H-Tyr-Pro-Phe-NHPh)	23.2
N[C@@H](Cc1ccc(O)cc1)C(=O)N1CCC[C@H]1C(=O)N[C@@H](Cc1ccccc1)C(=O)Nc1cccnc1	19.4
NC(=O)[C@H](Cc1ccccc1)NC(=O)[C@@H]1CCCN1C(=O)[C@@H](N)Cc1ccc(O)cc1 (H-Tyr-Pro-Phe-NH2)	15.9
N[C@@H](Cc1ccc(O)cc1)C(=O)N1CCC[C@H]1C(=O)N[C@@H](Cc1ccccc1)C(=O)NCCc1ccccc1 (H-Tyr-Pro-Phe-NHPhenethyl)	4.31
Cc1cc(O)cc(C)c1C[C@H](N)C(=O)N1CCC[C@H]1C(=O)N[C@@H](Cc1ccccc1)C(=O)NCc1ccccc1 (H-[Dmt]-Pro-Phe-NHBn)	0.0138
Cc1cc(O)cc(C)c1C[C@H](N)C(=O)N1CCC[C@H]1C(=O)N[C@@H](Cc1ccccc1)C(=O)Nc1ccccc1 (H-[Dmt]-Pro-Phe-NHPh)	0.0206
N[C@@H](Cc1ccc(O)cc1)C(=O)N1CCC[C@H]1C(=O)N[C@@H](Cc1ccccc1)C(=O)Nc1cccc2cnccc12	3.48
N[C@@H](Cc1ccc(O)cc1)C(=O)N1CCC[C@H]1C(=O)N[C@@H](Cc1ccccc1)C(=O)NC12C[C@H]3C[C@@H](C1)C[C@@H](C2)C3	6.26
CC(C)(C)NC(=O)[C@H](Cc1ccccc1)NC(=O)[C@@H]1CCCN1C(=O)[C@@H](N)Cc1ccc(O)cc1 (H-Tyr-Pro-Phe-NHtBu)	13.3
Cc1cc(O)cc(C)c1C[C@H](N)C(=O)N1CCC[C@H]1C(=O)N[C@@H](Cc1ccccc1)C(N)=O (H-[Dmt]-Pro-Phe-NH2)	0.0532
N[C@@H](Cc1ccc(O)cc1)C(=O)N1CCC[C@H]1C(=O)N[C@@H](Cc1ccccc1)C(=O)Nc1cccc2cccnc12	17.1

target: Mu-type opioid receptor (Rattus norvegicus, UniProt P33535); assay: Binding affinity against rat brain Opioid receptor mu 1 using [3H]DAMGO radioligand
Sequence (P33535 whole entry): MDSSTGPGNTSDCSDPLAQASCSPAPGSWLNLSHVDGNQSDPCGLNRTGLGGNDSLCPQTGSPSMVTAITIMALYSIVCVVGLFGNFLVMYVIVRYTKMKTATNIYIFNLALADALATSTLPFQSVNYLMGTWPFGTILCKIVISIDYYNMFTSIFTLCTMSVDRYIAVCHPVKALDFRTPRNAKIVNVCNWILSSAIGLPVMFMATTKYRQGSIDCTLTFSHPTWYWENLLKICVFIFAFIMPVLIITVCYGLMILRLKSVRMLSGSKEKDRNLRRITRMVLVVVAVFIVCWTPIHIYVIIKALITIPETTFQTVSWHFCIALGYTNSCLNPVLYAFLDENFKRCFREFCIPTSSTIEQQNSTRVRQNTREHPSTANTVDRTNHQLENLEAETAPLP

Structure (SMILES)	Ki [µM]
N[C@@H](Cc1ccc(O)cc1)C(=O)N1CCC[C@H]1C(=O)N[C@@H](Cc1ccccc1)C(=O)Nc1cccc2ccccc12	0.00241
Cc1cc(O)cc(C)c1C[C@H](N)C(=O)N1CCC[C@H]1C(=O)N[C@@H](Cc1ccccc1)C(=O)Nc1cccc2ncccc12	0.00011
Cc1cc(O)cc(C)c1C[C@H](N)C(=O)N1CCC[C@H]1C(=O)N[C@@H](Cc1ccccc1)C(=O)Nc1cnc2ccccc2c1	0.00033
N[C@@H](Cc1ccc(O)cc1)C(=O)N1CCC[C@H]1C(=O)N[C@@H](Cc1ccccc1)C(=O)Nc1ccc2ncccc2c1	0.0729
N[C@@H](Cc1ccc(O)cc1)C(=O)N1CCC[C@H]1C(=O)N[C@@H](Cc1ccccc1)C(=O)Nc1ccccc1 (H-Tyr-Pro-Phe-NHPh)	0.0335
N[C@@H](Cc1ccc(O)cc1)C(=O)N1CCC[C@H]1C(=O)N[C@@H](Cc1ccccc1)C(=O)Nc1cccnc1	0.0485
NC(=O)[C@H](Cc1ccccc1)NC(=O)[C@@H]1CCCN1C(=O)[C@@H](N)Cc1ccc(O)cc1 (H-Tyr-Pro-Phe-NH2)	0.0463
N[C@@H](Cc1ccc(O)cc1)C(=O)N1CCC[C@H]1C(=O)N[C@@H](Cc1ccccc1)C(=O)NCCc1ccccc1 (H-Tyr-Pro-Phe-NHPhenethyl)	0.0133
Cc1cc(O)cc(C)c1C[C@H](N)C(=O)N1CCC[C@H]1C(=O)N[C@@H](Cc1ccccc1)C(=O)NCc1ccccc1 (H-[Dmt]-Pro-Phe-NHBn)	0.00052
Cc1cc(O)cc(C)c1C[C@H](N)C(=O)N1CCC[C@H]1C(=O)N[C@@H](Cc1ccccc1)C(=O)Nc1ccccc1 (H-[Dmt]-Pro-Phe-NHPh)	0.00111
N[C@@H](Cc1ccc(O)cc1)C(=O)N1CCC[C@H]1C(=O)N[C@@H](Cc1ccccc1)C(=O)Nc1cccc2cnccc12	0.0611
N[C@@H](Cc1ccc(O)cc1)C(=O)N1CCC[C@H]1C(=O)N[C@@H](Cc1ccccc1)C(=O)NC12C[C@H]3C[C@@H](C1)C[C@@H](C2)C3	0.0236
CC(C)(C)NC(=O)[C@H](Cc1ccccc1)NC(=O)[C@@H]1CCCN1C(=O)[C@@H](N)Cc1ccc(O)cc1 (H-Tyr-Pro-Phe-NHtBu)	0.0196
Cc1cc(O)cc(C)c1C[C@H](N)C(=O)N1CCC[C@H]1C(=O)N[C@@H](Cc1ccccc1)C(N)=O (H-[Dmt]-Pro-Phe-NH2)	0.00012
N[C@@H](Cc1ccc(O)cc1)C(=O)N1CCC[C@H]1C(=O)N[C@@H](Cc1ccccc1)C(=O)Nc1cccc2cccnc12	0.249

target: Opioid receptors; mu & delta (Rattus norvegicus) (UniProt P33533+P33535); assay: Ratio of binding affinity against rat brain delta opioid receptor to that of mu opioid receptor
Sequence (P33533 whole entry, looked up): as the sequence (P33533 whole entry) above
Sequence (P33535 whole entry, looked up): as the sequence (P33535 whole entry) above

Structure (SMILES)	Ratio
N[C@@H](Cc1ccc(O)cc1)C(=O)N1CCC[C@H]1C(=O)N[C@@H](Cc1ccccc1)C(=O)Nc1cccc2ccccc12	1510
Cc1cc(O)cc(C)c1C[C@H](N)C(=O)N1CCC[C@H]1C(=O)N[C@@H](Cc1ccccc1)C(=O)Nc1cccc2ncccc12	283
Cc1cc(O)cc(C)c1C[C@H](N)C(=O)N1CCC[C@H]1C(=O)N[C@@H](Cc1ccccc1)C(=O)Nc1cnc2ccccc2c1	577
Cc1cc(O)cc(C)c1C[C@H](N)C(=O)N1CCC[C@H]1C(=O)N[C@@H](Cc1ccccc1)C(=O)Nc1cccc2ccccc12	68
N[C@@H](Cc1ccc(O)cc1)C(=O)N1CCC[C@H]1C(=O)N[C@@H](Cc1ccccc1)C(=O)Nc1ccc2ncccc2c1	136
N[C@@H](Cc1ccc(O)cc1)C(=O)N1CCC[C@H]1C(=O)N[C@@H](Cc1ccccc1)C(=O)Nc1ccccc1 (H-Tyr-Pro-Phe-NHPh)	692
N[C@@H](Cc1ccc(O)cc1)C(=O)N1CCC[C@H]1C(=O)N[C@@H](Cc1ccccc1)C(=O)Nc1cccnc1	400
NC(=O)[C@H](Cc1ccccc1)NC(=O)[C@@H]1CCCN1C(=O)[C@@H](N)Cc1ccc(O)cc1 (H-Tyr-Pro-Phe-NH2)	343
N[C@@H](Cc1ccc(O)cc1)C(=O)N1CCC[C@H]1C(=O)N[C@@H](Cc1ccccc1)C(=O)NCCc1ccccc1 (H-Tyr-Pro-Phe-NHPhenethyl)	324
N[C@@H](Cc1ccc(O)cc1)C(=O)N1CCC[C@H]1C(=O)N[C@@H](Cc1ccccc1)C(=O)Nc1cccc2cnccc12	57
N[C@@H](Cc1ccc(O)cc1)C(=O)N1CCC[C@H]1C(=O)N[C@@H](Cc1ccccc1)C(=O)NC12C[C@H]3C[C@@H](C1)C[C@@H](C2)C3	265
CC(C)(C)NC(=O)[C@H](Cc1ccccc1)NC(=O)[C@@H]1CCCN1C(=O)[C@@H](N)Cc1ccc(O)cc1 (H-Tyr-Pro-Phe-NHtBu)	680
Cc1cc(O)cc(C)c1C[C@H](N)C(=O)N1CCC[C@H]1C(=O)N[C@@H](Cc1ccccc1)C(N)=O (H-[Dmt]-Pro-Phe-NH2)	443
N[C@@H](Cc1ccc(O)cc1)C(=O)N1CCC[C@H]1C(=O)N[C@@H](Cc1ccccc1)C(=O)Nc1cccc2cccnc12	68

species on record: Mus musculus; assay: In vitro inhibitory concentration against electrically induced twitches in mouse vas deferens; format: functional

Structure (SMILES)	IC50 [µM]
Cc1cc(O)cc(C)c1C[C@H](N)C(=O)N1CCC[C@H]1C(=O)N[C@@H](Cc1ccccc1)C(=O)Nc1cccc2ncccc12	0.000616
Cc1cc(O)cc(C)c1C[C@H](N)C(=O)N1CCC[C@H]1C(=O)N[C@@H](Cc1ccccc1)C(=O)Nc1cnc2ccccc2c1	> 10
Cc1cc(O)cc(C)c1C[C@H](N)C(=O)N1CCC[C@H]1C(=O)N[C@@H](Cc1ccccc1)C(=O)Nc1cccc2ccccc12	0.00547
Cc1cc(O)cc(C)c1C[C@H](N)C(=O)N1CCC[C@H]1C(=O)N[C@@H](Cc1ccccc1)C(=O)NCc1ccccc1 (H-[Dmt]-Pro-Phe-NHBn)	> 10
Cc1cc(O)cc(C)c1C[C@H](N)C(=O)N1CCC[C@H]1C(=O)N[C@@H](Cc1ccccc1)C(=O)Nc1ccccc1 (H-[Dmt]-Pro-Phe-NHPh)	> 10
Cc1cc(O)cc(C)c1C[C@H](N)C(=O)N1CCC[C@H]1C(=O)N[C@@H](Cc1ccccc1)C(N)=O (H-[Dmt]-Pro-Phe-NH2)	0.113

species on record: Cavia porcellus; assay: In vitro inhibitory concentration against electrically induced twitches in guinea pig ileum; format: functional

Structure (SMILES)	IC50 [µM]
Cc1cc(O)cc(C)c1C[C@H](N)C(=O)N1CCC[C@H]1C(=O)N[C@@H](Cc1ccccc1)C(=O)Nc1cccc2ncccc12	0.00026
Cc1cc(O)cc(C)c1C[C@H](N)C(=O)N1CCC[C@H]1C(=O)N[C@@H](Cc1ccccc1)C(=O)Nc1cnc2ccccc2c1	0.00914
Cc1cc(O)cc(C)c1C[C@H](N)C(=O)N1CCC[C@H]1C(=O)N[C@@H](Cc1ccccc1)C(=O)Nc1cccc2ccccc12	0.00049
Cc1cc(O)cc(C)c1C[C@H](N)C(=O)N1CCC[C@H]1C(=O)N[C@@H](Cc1ccccc1)C(=O)NCc1ccccc1 (H-[Dmt]-Pro-Phe-NHBn)	0.022
Cc1cc(O)cc(C)c1C[C@H](N)C(=O)N1CCC[C@H]1C(=O)N[C@@H](Cc1ccccc1)C(=O)Nc1ccccc1 (H-[Dmt]-Pro-Phe-NHPh)	0.0377
Cc1cc(O)cc(C)c1C[C@H](N)C(=O)N1CCC[C@H]1C(=O)N[C@@H](Cc1ccccc1)C(N)=O (H-[Dmt]-Pro-Phe-NH2)	0.00233
